# In paper PMC8910004, “Hexokinase 2 Inhibition and Biological Effects of BNBZ and Its Derivatives: The Influence of the Number and Arrangement of Hydroxyl Groups” (International Journal of Molecular Sciences, 2022):
# Columns and labels:
# Hexokinase 2 (H6-hHK2) [1] = target: T1, Hexokinase 2 (H6-hHK2) (Homo sapiens, UniProt P52789); experiment: microscale thermophoresis (RED-Tris-NTA labelled His6-HK2); type: binding
# T1 construct: gene HK2; N-terminal His6-tagged human HK2, aa 17-917
# T1 sequence (P52789 17-917): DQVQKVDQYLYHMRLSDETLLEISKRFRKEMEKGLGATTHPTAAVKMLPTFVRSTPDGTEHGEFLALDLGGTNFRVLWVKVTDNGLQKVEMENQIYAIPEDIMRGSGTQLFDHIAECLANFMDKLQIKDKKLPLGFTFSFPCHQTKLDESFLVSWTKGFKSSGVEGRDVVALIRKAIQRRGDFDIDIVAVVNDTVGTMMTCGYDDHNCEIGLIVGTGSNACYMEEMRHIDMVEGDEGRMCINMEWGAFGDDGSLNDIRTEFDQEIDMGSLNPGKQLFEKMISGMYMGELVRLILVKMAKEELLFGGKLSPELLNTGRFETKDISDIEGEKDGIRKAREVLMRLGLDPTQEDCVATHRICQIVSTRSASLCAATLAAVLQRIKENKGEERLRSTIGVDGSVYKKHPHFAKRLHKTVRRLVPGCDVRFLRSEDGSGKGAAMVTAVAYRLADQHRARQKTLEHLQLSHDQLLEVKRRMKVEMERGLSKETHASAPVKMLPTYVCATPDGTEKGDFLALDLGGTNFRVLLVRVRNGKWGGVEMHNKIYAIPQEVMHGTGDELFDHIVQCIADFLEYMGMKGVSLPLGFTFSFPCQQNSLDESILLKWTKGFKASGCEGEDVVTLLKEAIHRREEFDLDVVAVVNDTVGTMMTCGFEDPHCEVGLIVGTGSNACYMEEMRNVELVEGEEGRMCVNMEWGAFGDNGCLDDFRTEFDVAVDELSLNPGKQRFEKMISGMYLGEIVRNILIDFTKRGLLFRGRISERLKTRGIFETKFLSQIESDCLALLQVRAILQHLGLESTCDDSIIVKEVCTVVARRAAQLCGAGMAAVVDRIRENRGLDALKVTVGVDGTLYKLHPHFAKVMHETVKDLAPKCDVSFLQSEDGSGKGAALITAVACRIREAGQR
# Hexokinase 2 (H6-hHK2) [2] = target: T1, Hexokinase 2 (H6-hHK2); experiment: microscale thermophoresis (RED-Tris-NTA labelled His6-HK2); also inhibits isolated HK2 in kit assay; type: binding
# Hexokinase 2 = target: T2, Hexokinase 2 (Homo sapiens, UniProt P52789); experiment: in vitro HK2 Inhibitor Screening Kit (G6PDH-coupled colorimetric), […], positive control; type: biochemical
# T2 construct: gene HK2
# T2 sequence (P52789 1-917): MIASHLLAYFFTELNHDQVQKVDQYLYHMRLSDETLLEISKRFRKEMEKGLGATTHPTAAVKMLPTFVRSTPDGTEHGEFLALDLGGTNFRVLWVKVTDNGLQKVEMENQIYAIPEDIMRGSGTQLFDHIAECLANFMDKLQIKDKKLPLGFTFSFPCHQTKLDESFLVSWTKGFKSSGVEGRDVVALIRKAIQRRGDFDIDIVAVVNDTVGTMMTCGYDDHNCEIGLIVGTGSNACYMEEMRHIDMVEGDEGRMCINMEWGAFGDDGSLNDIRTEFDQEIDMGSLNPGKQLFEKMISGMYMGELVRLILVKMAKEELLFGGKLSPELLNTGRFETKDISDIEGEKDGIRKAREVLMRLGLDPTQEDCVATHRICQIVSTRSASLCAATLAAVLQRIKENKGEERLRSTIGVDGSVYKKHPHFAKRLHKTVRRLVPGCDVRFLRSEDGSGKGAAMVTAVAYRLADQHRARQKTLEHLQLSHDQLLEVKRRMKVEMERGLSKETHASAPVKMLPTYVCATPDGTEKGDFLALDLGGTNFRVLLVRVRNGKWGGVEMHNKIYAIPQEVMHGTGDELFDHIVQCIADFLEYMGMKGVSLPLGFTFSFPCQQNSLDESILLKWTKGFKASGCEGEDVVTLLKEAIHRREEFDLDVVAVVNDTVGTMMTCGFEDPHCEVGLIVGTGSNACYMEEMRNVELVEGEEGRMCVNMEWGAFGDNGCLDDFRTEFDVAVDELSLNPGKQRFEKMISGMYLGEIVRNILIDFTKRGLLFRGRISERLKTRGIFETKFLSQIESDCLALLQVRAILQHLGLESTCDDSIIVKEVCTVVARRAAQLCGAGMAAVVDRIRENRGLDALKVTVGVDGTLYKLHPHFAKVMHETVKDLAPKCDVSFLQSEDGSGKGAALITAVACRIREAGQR
Compound,activity at 5 µM (Hexokinase 2),further results
"O=C(N/N=C/c1ccc(O)cc1O)c1ccc([N+](=O)[O-])cc1 [2b, (E)-N′-(2,4-dihydroxybenzylidene)-4-nitrobenzohydrazide]",,Kd (Hexokinase 2 (H6-hHK2) [1]): 58.9 µM
"O=C(N/N=C/c1ccc(O)c(O)c1O)c1ccc([N+](=O)[O-])cc1 [2a, (E)-N′-(2,3,4-trihydroxybenzylidene)-4-nitrobenzohydrazide]",,Kd (Hexokinase 2 (H6-hHK2) [2]): 8.83 to 11 µM
"OC[C@H]1OC(O)C[C@@H](O)[C@@H]1O (stereo partly shown) [2DG, 2-deoxyglucose]",9.9 ± 0.5%,
"O=C(O)C(=O)CBr [3BP, 3-bromopyruvate]",2.5 ± 0.4%,
